Reference: US20010014324A1 (priority 1998, published 2001)

Tests used:
Phytophthora infestans = type: in vivo; settings: potato; standard chemical inducer at 500 ppm
[1] = system: Puccinia recondita spp. tritici; assay: Induced plant defense on wheat against Puccinia recondita spp. tritici (spray treatment); type: in vivo
Method: Ten seeds of wheat ([…]) of the variety “Arina” were grown in pots of 8 cm diameter in a mixture of ⅓ sand and ⅔ TKS1® soil at +25° C. in a 16/8 h light/dark regime. for 7 days till the primary leaf was fully expended.
Brown rust strain Puccinia recondita spp. tritici was propagated on the same variety of wheat. Fully infected, sporulating leaves were cut and the spores dusted onto water containing 0.05% of Tween 20®. The inoculum density was adjusted to 100,000 spores per ml.
Wheat plants with the secondary leaf just emerging were sprayed 7 and 3 days before inoculation. The entire plant was sprayed with PEN extract containing 1-2 g of glucose equivalents and 0.05% of Tween 20 to near run-off with an air driven spray pistol, model JATO 232 FR at 0.5 bar.
After the treatment plants were kept in the greenhouse till they were challenge inoculated. Control plants were mock treated with distilled water.
Treated or control plants were sprayed with approximately 3 ml of sporangia suspension in a ventilated inoculation chamber using an air driven spray pistol, model JATO 232 FR at 0.2 bar to generate a homogeneous layer of fine troplets on the whole seedling.
When the troplets had dried, plants were transferred to Plexiglas boxes and kept at +20° C. and a 60% relative humidity for 24 h in the dark then light was switched on and the plants kept under the same conditions for additional four days. Afterwards plants were returned to the greenhouse and kept at standard conditions as described above.
10 days after inoculation, when the fungus sporulated on control plants, the degree of infection was visually determined as % of infected leaf area on the inoculated leaves plants. The degree of protection was calculated with respect to the control plants according to the formula: [formula]

| SMILES | % infected leaf area (Phytophthora infestans) | % protection (Phytophthora infestans) | % infected ([1]; concentration 30 ppm) | % protection ([1]; concentration 30 ppm) | % infected ([1]; concentration 60 ppm) | % protection ([1]; concentration 60 ppm) |
| --- | --- | --- | --- | --- | --- | --- |
| CC(N)CC(=O)O (stereo not drawn) [BABA, beta-butyric acid] | 23% | 61% |  |  |  |  |
| CSC(=O)c1cccc2nnsc12 [CGA 245 704] |  |  | 31.3% | 48.8% | 60% | 20% |
